Data as given in patent US6914045B2, “Glycopeptide antibiotics” (Wyeth Holdings Corporation, priority 2001, dated 2005).
Converted amounts (≈) assume the structure as drawn.

Tests used:
Test in all cases: in vitro antibacterial evaluation, MIC by broth dilution
Assay type in all cases: cell-based
Streptococcus sp. = conditions: broth dilution, 18 hours at 35° C.
Summary of the method: (§1)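 Step 1: dilute antibiotic across 64-0.06 μg/mL in Muller-Hinton II […]. Step 2: inoculate at 5×10^5 CFU/mL.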

Enterococcus sp. = conditions: broth dilution, 18 hours at 35° C.
Summary of the method: as §1

Staphylococcus sp. = conditions: broth dilution, 18 hours at 35° C.
Summary of the method: as §1

Escherichia coli = conditions: 18 hours at 35° C.

MIC Streptococcus agalactiae (GC 4564) (Streptococcus sp.): >64 µg/mL | MIC Streptococcus pneumoniae (ATCC 6301) (Streptococcus sp.): 64 µg/mL (≈ 44.9 µM) | MIC Streptococcus pneumoniae (GC 1894) (Streptococcus sp.): 32 µg/mL (≈ 22.4 µM) | MIC Streptococcus pneumoniae (GC 4565) (Streptococcus sp.): 64 µg/mL (≈ 44.9 µM) | MIC Streptococcus pyogenes (GC 4563) (Streptococcus sp.): 64 µg/mL (≈ 44.9 µM) | MIC Streptococcus pneumoniae (ATCC 6301) (Streptococcus sp.; inoculum 5×10^5 CFU/mL, strain ATCC 6301): 64 µg/mL (≈ 44.9 µM) | MIC Streptococcus pneumoniae (GC 1894) (Streptococcus sp.; inoculum 5×10^5 CFU/mL, strain GC 1894): 32 µg/mL (≈ 22.4 µM) | MIC Streptococcus pyogenes (GC 4563) (Streptococcus sp.; inoculum 5×10^5 CFU/mL, strain GC 4563): 64 µg/mL (≈ 44.9 µM) | MIC Streptococcus agalactiae (GC 4564) (Streptococcus sp.; inoculum 5×10^5 CFU/mL, strain GC 4564): >64 µg/mL | MIC Streptococcus pneumoniae (GC 4565) (Streptococcus sp.; inoculum 5×10^5 CFU/mL, strain GC 4565): 64 µg/mL (≈ 44.9 µM) | MIC Enterococcus avium (GC 4558) (Enterococcus sp.): 64 µg/mL (≈ 44.9 µM) | MIC Enterococcus faecalis (ATCC 29212) (Enterococcus sp.): >64 µg/mL | MIC Enterococcus faecalis (GC 2242) (Enterococcus sp.): >64 µg/mL | MIC Enterococcus faecalis (GC 2691) (Enterococcus sp.): >64 µg/mL | MIC Enterococcus faecalis (GC 3059) (Enterococcus sp.): >64 µg/mL | MIC Enterococcus faecalis (GC 4552) (Enterococcus sp.): >64 µg/mL | MIC Enterococcus faecalis (GC 4553) (Enterococcus sp.): >64 µg/mL | MIC Enterococcus faecalis (GC 4554) (Enterococcus sp.): >64 µg/mL | MIC Enterococcus faecalis (GC 6189) (Enterococcus sp.): >64 µg/mL | MIC Enterococcus faecium (GC 2243) (Enterococcus sp.): >64 µg/mL | MIC Enterococcus faecium (GC 4556) (Enterococcus sp.): >64 µg/mL | MIC Enterococcus faecium (GC 4557) (Enterococcus sp.): 64 µg/mL (≈ 44.9 µM) | MIC Enterococcus faecalis (ATCC 29212) (Enterococcus sp.; inoculum 5×10^5 CFU/mL, strain ATCC 29212): >64 µg/mL | MIC Enterococcus faecalis (GC 2242) (Enterococcus sp.; inoculum 5×10^5 CFU/mL, strain GC 2242): >64 µg/mL | MIC Enterococcus faecium (GC 2243) (Enterococcus sp.; inoculum 5×10^5 CFU/mL, strain GC 2243): >64 µg/mL | MIC Enterococcus faecalis (GC 2691) (Enterococcus sp.; inoculum 5×10^5 CFU/mL, strain GC 2691): >64 µg/mL | MIC Enterococcus faecalis (GC 3059) (Enterococcus sp.; inoculum 5×10^5 CFU/mL, strain GC 3059): >64 µg/mL | MIC Enterococcus faecalis (GC 4552) (Enterococcus sp.; inoculum 5×10^5 CFU/mL, strain GC 4552): >64 µg/mL | MIC Enterococcus faecalis (GC 4553) (Enterococcus sp.; inoculum 5×10^5 CFU/mL, strain GC 4553): >64 µg/mL | MIC Enterococcus faecalis (GC 4554) (Enterococcus sp.; inoculum 5×10^5 CFU/mL, strain GC 4554): >64 µg/mL | MIC Enterococcus faecium (GC 4556) (Enterococcus sp.; inoculum 5×10^5 CFU/mL, strain GC 4556): >64 µg/mL | MIC Enterococcus faecium (GC 4557) (Enterococcus sp.; inoculum 5×10^5 CFU/mL, strain GC 4557): 64 µg/mL (≈ 44.9 µM) | MIC Enterococcus avium (GC 4558) (Enterococcus sp.; inoculum 5×10^5 CFU/mL, strain GC 4558): 64 µg/mL (≈ 44.9 µM) | MIC Enterococcus faecalis (GC 6189) (Enterococcus sp.; inoculum 5×10^5 CFU/mL, strain GC 6189): >64 µg/mL | MIC Staphylococcus aureus (ATCC 29213) (Staphylococcus sp.; strain ATCC 29213): >64 µg/mL | MIC Staphylococcus aureus (GC 1131) (Staphylococcus sp.; strain GC 1131): >64 µg/mL | MIC Staphylococcus aureus (GC 3051) (Staphylococcus sp.; strain GC 3051): >64 µg/mL | MIC Staphylococcus aureus (GC 3053) (Staphylococcus sp.; strain GC 3053): >64 µg/mL | MIC Staphylococcus aureus (GC 4541) (Staphylococcus sp.; strain GC 4541): >64 µg/mL | MIC Staphylococcus aureus (GC 4542) (Staphylococcus sp.; strain GC 4542): >64 µg/mL | MIC Staphylococcus aureus-SMITH (GC 4543) (Staphylococcus sp.; strain GC 4543): >64 µg/mL | MIC Staphylococcus aureus (GC 4544) (Staphylococcus sp.; strain GC 4544): >64 µg/mL | MIC Staphylococcus aureus (GC 4545) (Staphylococcus sp.; strain GC 4545): >64 µg/mL | MIC Coagulase Negative Staphylococcus (GC 4547) (Staphylococcus sp.; strain GC 4547): >64 µg/mL | MIC Coagulase Negative Staphylococcus (GC 4548) (Staphylococcus sp.; strain GC 4548): >64 µg/mL | MIC Coagulase Negative Staphylococcus (GC 4549) (Staphylococcus sp.; strain GC 4549): >64 µg/mL | MIC Coagulase Negative Staphylococcus (GC 4551) (Staphylococcus sp.; strain GC 4551): >64 µg/mL | MIC Escherichia coli (ATCC 25922) (Escherichia coli): >64 µg/mL | MIC Escherichia coli (GC 4559) (Escherichia coli): >64 µg/mL | MIC Escherichia coli (GC 4560) (Escherichia coli): 64 µg/mL (≈ 44.9 µM)
SMILES: N=C1NCC(C(O)C2NC(=O)C(CC3CCC(OC4OC(CO)C(OC5OC6COC7(OC6C(O)C5O)C5CC6CC(C5)CC7C6)C(O)C4O)CC3)NC(=O)C(CC3CCCCC3)NC(=O)CNC(=O)C(CO)NC(=O)C(C(O)C3CNC(=N)N3C3OC(CO)C(O)C(O)C3O)NC2=O)N1 (single isomer, unassigned) [Example 222]
MIC Staphylococcus haemolyticus (GC 4546) (Staphylococcus sp.; strain GC 4546): >64 µg/mL
